Consider 29 compounds from patent publication US4616087A, “2,5-bis alkyl sulfonyl and 2,5-bis alkyl thio substituted-pyridines” (The Dow Chemical Company, priority 1982, dated 1986).

The test system of this assay is rhinovirus type 1A (RV-1A), rhinovirus type 2 (RV-2) or Coxsackie A21 virus (Cox A21). Nature of the assay: Tissue Culture testing, antiviral activity (virus not specified). The note with it: HeLa cells; qualitative. The format is cell-based. As for the experimental part:
Monolayered HeLa cells in 16 millimeter (mm) tissue culture dishes were treated with 1 ml of culture medium (Eagles medium supplemented with fetal calf serum) containing subject compound at an appropriate concentration or containing no compound at all. Culture media such as those described herein are more fully described in standard texts, as for example, Kuchler's Biochemical Methods in Cell Culture and Virology, Dowden, Hutchinson and Ross, Inc., Stroudsberg, PA (1977). Following treatment, cells were challenged with 0.05 ml of rhinovirus type 1A (RV-1A), rhinovirus type 2 (RV-2) or Coxsackie A21 virus (Cox A21) in culture medium. Some of the compounds were also tested against rhinovirus type 5 (RV-5), rhinovirus type 8 (RV-8) or rhinovirus type 64 (RV-64). Cell controls received no viruses.

Consider `CC(=O)c1ccc(Oc2ccc(S(=O)(=O)C(C)C)cn2)cc1` [1-(4-((5-((1-methylethyl)sulfonyl)-2-pyridinyl)oxy)phenyl)ethanone], for which the “antiviral activity in the Tissue Culture testing” value (“antiviral activity” below) is reported as “exhibiting antiviral activity”. With `CC(=O)c1ccc(Oc2ccc(S(C)(=O)=O)cn2)cc1` [1-(4-((5-(methylsulfonyl)-2-pyridinyl)oxy)phenyl)ethanone] the entry was “exhibiting antiviral activity”; with `CCS(=O)(=O)c1cccnc1Oc1ccc(Cl)c(Cl)c1` [2-(3,4-dichlorophenoxy)-3-(ethylsulfonyl)pyridine], “exhibiting antiviral activity”; with `O=S(=O)(Cc1ccccc1)c1ccc(Oc2ccc(Cl)c(Cl)c2)nc1` [2-(3,4-dichlorophenoxy)-5-((phenylmethyl)sulfonyl)pyridine], “exhibiting antiviral activity”.

With `O=S(=O)(c1ccc(Oc2ccc(Cl)c(Cl)c2)nc1)C1CCCCC1` [2-(3,4-dichlorophenoxy)-5-(cyclohexylsulfonyl)pyridine], the “antiviral activity” value was “exhibiting antiviral activity”. In the case of `CCS(=O)(=O)c1ccc(Oc2ccc(Cl)c(Cl)c2)nc1` [2-(3,4-dichlorophenoxy)-5-(ethylsulfonyl)pyridine] it was “exhibiting antiviral activity”; in that of `CS(=O)(=O)c1ccc(Oc2ccc(Cl)c(Cl)c2)nc1` [2-(3,4-dichlorophenoxy)-5-(methylsulfonyl)pyridine], “exhibiting antiviral activity”. As to `CCCCCCS(=O)(=O)c1ccc(Oc2ccc(Cl)c(Cl)c2)nc1` [2-(3,4-dichlorophenoxy)-5-(n-hexylsulfonyl)pyridine], the “antiviral activity” value is “exhibiting antiviral activity”. Take `CS(=O)(=O)c1ccc(Oc2cccc(Br)c2)nc1` [2-(3-bromophenoxy)-5-(methylsulfonyl)pyridine]: the “antiviral activity” value was “exhibiting antiviral activity”.

For `CC(C)(C)c1ccc(Oc2ccc(S(C)(=O)=O)cn2)cc1` [2-(4-(1,1-dimethylethyl)phenoxy)-5-(methylsulfonyl)pyridine], the “antiviral activity” value is recorded as “exhibiting antiviral activity”. Turning to `CSc1ccc(Oc2ccc(S(C)(=O)=O)cn2)cc1` [2-(4-(methylthio)phenoxy)-5-(methylsulfonyl)pyridine], the “antiviral activity” value is on record as “exhibiting antiviral activity”. In the case of `CC(C)S(=O)(=O)c1ccc(Oc2ccc(Br)cc2)nc1` [2-(4-bromophenoxy)-5-((1-methylethyl)sulfonyl)pyridine] it was “exhibiting antiviral activity”. Regarding `O=S(=O)(Cc1ccccc1)c1ccc(Oc2ccc(Br)cc2)nc1` [2-(4-bromophenoxy)-5-((phenylmethyl)sulfonyl)pyridine], the “antiviral activity” value is on record as “exhibiting antiviral activity”. Take `O=S(=O)(c1ccc(Oc2ccc(Br)cc2)nc1)C1CCCCC1` [2-(4-bromophenoxy)-5-(cyclohexylsulfonyl)pyridine]: the “antiviral activity” value is reported as “exhibiting antiviral activity”. For `CS(=O)(=O)c1ccc(Oc2ccc(Br)cc2)nc1` [2-(4-bromophenoxy)-5-(methylsulfonyl)pyridine], the “antiviral activity” value was “exhibiting antiviral activity”.

With `O=S(=O)(c1ccccc1)c1ccc(Oc2ccc(Br)cc2)nc1` [2-(4-bromophenoxy)-5-(phenylsulfonyl)pyridine], the “antiviral activity” value is on record as “exhibiting antiviral activity”. Regarding `CCS(=O)(=O)c1ccc(Oc2ccc(Cl)cc2)nc1` [2-(4-chlorophenoxy)-5-(ethylsulfonyl)pyridine], the “antiviral activity” value is “exhibiting antiviral activity”. With `CS(=O)(=O)c1ccc(Oc2ccc(Cl)cc2)nc1` [2-(4-chlorophenoxy)-5-(methylsulfonyl)pyridine], the “antiviral activity” value was “exhibiting antiviral activity”.

For the compound `CS(=O)(=O)c1ccc(Oc2cccc(C#N)c2)nc1` [3-((5-(methylsulfonyl)-2-pyridinyl)oxy)benzonitrile], the “antiviral activity” value is reported as “exhibiting antiviral activity”.

For the compound `CS(=O)(=O)c1ccc(Oc2ccc(C#N)cc2)nc1` [4-((5-(methylsulfonyl)-2-pyridinyl)oxy)benzonitrile], the “antiviral activity” value is given as “exhibiting antiviral activity”. Take `CCS(=O)(=O)c1ccc(Oc2cc(Cl)c(Cl)cc2Cl)nc1` [5-(ethylsulfonyl)-2-(2,4,5-trichlorophenoxy)pyridine]: the “antiviral activity” value is “exhibiting antiviral activity”. In the case of `CCS(=O)(=O)c1ccc(Oc2ccc(Oc3ccccc3)cc2)nc1` [5-(ethylsulfonyl)-2-(4-phenoxyphenoxy)pyridine] it was “exhibiting antiviral activity”; in that of `CS(=O)(=O)c1ccc(Oc2ccc(Oc3ccccc3)cc2)nc1` [5-(methylsulfonyl)-2-(4-phenoxyphenoxy)pyridine], “exhibiting antiviral activity”; in that of `CS(=O)(=O)c1cccnc1Oc1ccc(C(=O)c2ccccc2)cc1` [(4-((3-(methylsulfonyl)-2-pyridinyl)oxy)phenyl)phenylmethanone], “exhibiting antiviral activity”. On to `CC(C)S(=O)(=O)c1ccc(Oc2ccc(C(=O)c3ccccc3)cc2)nc1` [(4-((5-((1-methylethyl)sulfonyl)-2-pyridinyl)oxy)phenyl)phenylmethanone], for which the “antiviral activity” value is given as “exhibiting antiviral activity”.

For `O=C(c1ccccc1)c1ccc(Oc2ccc(S(=O)(=O)C3CCCCC3)cn2)cc1` [(4-((5-(cyclohexylsulfonyl)-2-pyridinyl)oxy)phenyl)phenylmethanone], the “antiviral activity” value was “exhibiting antiviral activity”. Regarding `CCS(=O)(=O)c1ccc(Oc2ccc(C(=O)c3ccccc3)cc2)nc1` [(4-((5-(ethylsulfonyl)-2-pyidinyl)oxy)phenyl)phenylmethanone], the “antiviral activity” value was “exhibiting antiviral activity”. On to `CS(=O)(=O)c1ccc(Oc2ccc(C(=O)c3ccccc3)cc2)nc1` [(4-((5-(methylsulfonyl)-2-pyridinyl)oxy)phenyl)phenylmethanone], for which the “antiviral activity” value is on record as “exhibiting antiviral activity”.

As to `CCCCCCS(=O)(=O)c1ccc(Oc2ccc(C(=O)c3ccccc3)cc2)nc1` [(4-((5-(n-hexylsulfonyl)-2-pyridinyl)oxy)phenyl)phenylmethanone], the “antiviral activity” value was “exhibiting antiviral activity”.
